Species: Rattus norvegicus
Assay: DrugMatrix - Regimen: Daily Repeat
Type: toxicity, organism-based, Sprague-Dawley
Design: regimen Daily Repeat, gender Male, age 6-8 weeks
Conditions: in vivo, sc, route subcutaneous, […]; for SODIUM / TOTAL BILIRUBIN / TOTAL PROTEIN / URIC ACID / ALANINE AMINOTRANSFERASE / ALBUMIN / ALKALINE PHOSPHATASE / ASPARTATE AMINOTRANSFERASE / BLOOD UREA NITROGEN / CARBON DIOXIDE / CHLORIDE / CHOLESTEROL / CREATINE PHOSPHOKINASE / CREATININE / GLUCOSE / LACTATE DEHYDROGENASE / LIPASE / PHOSPHORUS / POTASSIUM: tissue Plasma; for ABSOLUTE BASOPHIL / ABSOLUTE EOSINOPHIL / ABSOLUTE LYMPHOCYTE / ABSOLUTE MONOCYTE / ABSOLUTE SEGMENTED NEUTROPHIL / BASOPHIL / EOSINOPHIL / ERYTHROCYTE COUNT / HEMATOCRIT / HEMOGLOBIN / LEUKOCYTE COUNT / LYMPHOCYTE / MEAN CORPUSCULAR HEMOGLOBIN / MEAN CORPUSCULAR HEMOGLOBIN CONCENTRATION / MEAN CORPUSCULAR VOLUME / MONOCYTE / NEUTROPHIL / NUCLEATED RED BLOOD CELLS / PLATELET COUNT: tissue Blood
[1] = 2 mg/kg, 120 h, dose level M2, time 5 day
[2] = 25 mg/kg, 72 h, dose level High, time 3 day
[3] = 25 mg/kg, 120 h, dose level High, time 5 day
[4] = 72 h, dose 0.25 mg/Kg, dose level M1, time 3 day
[5] = 120 h, dose 0.25 mg/Kg, dose level M1, time 5 day

## C[C@]12CC[C@@H]3c4ccc(OC(=O)c5ccccc5)cc4CC[C@H]3[C@@H]1CC[C@@H]2O [ESTRADIOL BENZOATE]
[1]
  SODIUM: 141.87 MEQ/L
  TOTAL BILIRUBIN: 0.13 mg/dL
  TOTAL PROTEIN: 5.93 G/DL
  URIC ACID: 2.07 mg/dL
[2]
  ABSOLUTE BASOPHIL: 0 CELLS/uL
  ABSOLUTE EOSINOPHIL: 0 CELLS/uL
  ABSOLUTE LYMPHOCYTE: 7876 CELLS/uL
  ABSOLUTE MONOCYTE: 263 CELLS/uL
  ABSOLUTE SEGMENTED NEUTROPHIL: 1061 CELLS/uL
  BASOPHIL: 0%
  EOSINOPHIL: 0%
  ERYTHROCYTE COUNT: 5.97 x10E6/uL
  HEMATOCRIT: 37%
  HEMOGLOBIN: 13.8 G/DL
  LEUKOCYTE COUNT: 9.2 x10E3/uL
  LYMPHOCYTE: 86%
  MEAN CORPUSCULAR HEMOGLOBIN: 23.2 pg
  MEAN CORPUSCULAR HEMOGLOBIN CONCENTRATION: 37.33 G/DL
  MEAN CORPUSCULAR VOLUME: 62.1 fL
  MONOCYTE: 2.67%
  NEUTROPHIL: 11.33%
  NUCLEATED RED BLOOD CELLS: 0 /100WBC
  PLATELET COUNT: 1341 x10E3/uL
  ALANINE AMINOTRANSFERASE: 32.33 u/L
  ALBUMIN: 4.13 G/DL
  ALKALINE PHOSPHATASE: 479.33 u/L
  ASPARTATE AMINOTRANSFERASE: 66.67 u/L
  BLOOD UREA NITROGEN: 10.33 mg/dL
  CARBON DIOXIDE: 29 mmol/L
  CHLORIDE: 101.33 MEQ/L
  CHOLESTEROL: 26.67 mg/dL
  CREATINE PHOSPHOKINASE: 407.67 u/L
  CREATININE: 0.16 mg/dL
  GLUCOSE: 188.67 mg/dL
  LACTATE DEHYDROGENASE: 154.67 u/L
  LIPASE: 7.33 u/L
  PHOSPHORUS: 11.1 mg/dL
  POTASSIUM: 5.86 MEQ/L
  SODIUM: 141.4 MEQ/L
  TOTAL BILIRUBIN: 0.1 mg/dL
  TOTAL PROTEIN: 5.73 G/DL
  URIC ACID: 2 mg/dL
[3]
  ABSOLUTE BASOPHIL: 0 CELLS/uL
  ABSOLUTE EOSINOPHIL: 23.33 CELLS/uL
  ABSOLUTE LYMPHOCYTE: 7006.67 CELLS/uL
  ABSOLUTE MONOCYTE: 182 CELLS/uL
  ABSOLUTE SEGMENTED NEUTROPHIL: 921.33 CELLS/uL
  BASOPHIL: 0%
  EOSINOPHIL: 0.33%
  ERYTHROCYTE COUNT: 5.89 x10E6/uL
  HEMATOCRIT: 35%
  HEMOGLOBIN: 13.6 G/DL
  LEUKOCYTE COUNT: 8.13 x10E3/uL
  LYMPHOCYTE: 86.33%
  MEAN CORPUSCULAR HEMOGLOBIN: 23.13 pg
  MEAN CORPUSCULAR HEMOGLOBIN CONCENTRATION: 38.9 G/DL
  MEAN CORPUSCULAR VOLUME: 59.43 fL
  MONOCYTE: 2.67%
  NEUTROPHIL: 10.67%
  NUCLEATED RED BLOOD CELLS: 0 /100WBC
  PLATELET COUNT: 988.67 x10E3/uL
  ALANINE AMINOTRANSFERASE: 53 u/L
  ALBUMIN: 5.07 G/DL
  ALKALINE PHOSPHATASE: 360 u/L
  ASPARTATE AMINOTRANSFERASE: 106.33 u/L
  BLOOD UREA NITROGEN: 14 mg/dL
  CARBON DIOXIDE: 27.33 mmol/L
  CHLORIDE: 98.67 MEQ/L
  CHOLESTEROL: 32.67 mg/dL
  CREATINE PHOSPHOKINASE: 366.33 u/L
  CREATININE: 0.19 mg/dL
  GLUCOSE: 130.67 mg/dL
  LACTATE DEHYDROGENASE: 223.33 u/L
  LIPASE: 7.67 u/L
  PHOSPHORUS: 11.37 mg/dL
  POTASSIUM: 5.61 MEQ/L
  SODIUM: 143.3 MEQ/L
  TOTAL BILIRUBIN: 0.1 mg/dL
  TOTAL PROTEIN: 7.6 G/DL
  URIC ACID: 2.1 mg/dL
[4]
  ABSOLUTE BASOPHIL: 0 CELLS/uL
  ABSOLUTE EOSINOPHIL: 0 CELLS/uL
  ABSOLUTE LYMPHOCYTE: 8002.33 CELLS/uL
  ABSOLUTE MONOCYTE: 146.33 CELLS/uL
  ABSOLUTE SEGMENTED NEUTROPHIL: 218 CELLS/uL
  BASOPHIL: 0%
  EOSINOPHIL: 0%
  ERYTHROCYTE COUNT: 6.05 x10E6/uL
  HEMATOCRIT: 38.6%
  HEMOGLOBIN: 15.03 G/DL
  LEUKOCYTE COUNT: 8.37 x10E3/uL
  LYMPHOCYTE: 95.67%
  MEAN CORPUSCULAR HEMOGLOBIN: 24.83 pg
  MEAN CORPUSCULAR HEMOGLOBIN CONCENTRATION: 39.03 G/DL
  MEAN CORPUSCULAR VOLUME: 63.73 fL
  MONOCYTE: 1.67%
  NEUTROPHIL: 2.67%
  NUCLEATED RED BLOOD CELLS: 0 /100WBC
  PLATELET COUNT: 1109.67 x10E3/uL
  ALANINE AMINOTRANSFERASE: 61.67 u/L
  ALBUMIN: 4.2 G/DL
  ALKALINE PHOSPHATASE: 323.67 u/L
  ASPARTATE AMINOTRANSFERASE: 81.33 u/L
  BLOOD UREA NITROGEN: 11.33 mg/dL
  CARBON DIOXIDE: 26.33 mmol/L
  CHOLESTEROL: 75.67 mg/dL
  CREATINE PHOSPHOKINASE: 295 u/L
  CREATININE: 0.23 mg/dL
  GLUCOSE: 126 mg/dL
  LACTATE DEHYDROGENASE: 285.67 u/L
  LIPASE: 12.33 u/L
  PHOSPHORUS: 10.4 mg/dL
  TOTAL BILIRUBIN: 0.1 mg/dL
  TOTAL PROTEIN: 6.03 G/DL
  URIC ACID: 0.43 mg/dL
[5]
  ABSOLUTE BASOPHIL: 0 CELLS/uL
  ABSOLUTE EOSINOPHIL: 45.33 CELLS/uL
  ABSOLUTE LYMPHOCYTE: 12282.67 CELLS/uL
  ABSOLUTE MONOCYTE: 135 CELLS/uL
  ABSOLUTE SEGMENTED NEUTROPHIL: 937 CELLS/uL
  BASOPHIL: 0%
  EOSINOPHIL: 0.33%
  ERYTHROCYTE COUNT: 5.99 x10E6/uL
  HEMATOCRIT: 37.83%
  HEMOGLOBIN: 14.7 G/DL
  LEUKOCYTE COUNT: 13.4 x10E3/uL
  LYMPHOCYTE: 91.67%
  MEAN CORPUSCULAR HEMOGLOBIN: 24.53 pg
  MEAN CORPUSCULAR HEMOGLOBIN CONCENTRATION: 38.87 G/DL
  MEAN CORPUSCULAR VOLUME: 63.13 fL
  MONOCYTE: 1%
  NEUTROPHIL: 7%
  NUCLEATED RED BLOOD CELLS: 0 /100WBC
  PLATELET COUNT: 1305.33 x10E3/uL
  ALANINE AMINOTRANSFERASE: 47.67 u/L
  ALBUMIN: 4 G/DL
  ALKALINE PHOSPHATASE: 486.33 u/L
  ASPARTATE AMINOTRANSFERASE: 78.33 u/L
  BLOOD UREA NITROGEN: 15.33 mg/dL
  CARBON DIOXIDE: 22.67 mmol/L
  CHLORIDE: 104.33 MEQ/L
  CHOLESTEROL: 33 mg/dL
  CREATINE PHOSPHOKINASE: 654 u/L
  CREATININE: 0.27 mg/dL
  GLUCOSE: 190 mg/dL
  LACTATE DEHYDROGENASE: 308 u/L
  LIPASE: 9 u/L
  PHOSPHORUS: 12.63 mg/dL
  POTASSIUM: 4.9 MEQ/L
  SODIUM: 143.3 MEQ/L
  TOTAL BILIRUBIN: 0.1 mg/dL
  TOTAL PROTEIN: 5.73 G/DL
  URIC ACID: 1.6 mg/dL

From ChEMBL document CHEMBL3885881, “DrugMatrix”
